The values below come from US20090137550A1, “Novel Compounds” (Glaxo Group Limited, priority 2005, published 2009).

Assay [1] has as its system fibronectin and thrombospondin. The conditions noted are these: Laping et al., 2002; cited from earlier work.
The test system of assay [2] is TNF-stimulated IL8 production by human neutrophils. Description: TNF-Stimulated IL-8 Production from Human Neutrophils. In kind it is cell-based. The conditions noted are these: TNF 100 ng/ml, approximately 20 hrs, IL-8 by ELISA. In general terms: An ELISA detects its analyte on a solid surface through an enzyme-linked reagent.
Assay [3] concerns LPS-stimulated cytokine production (IL-1beta and/or TNFalpha). Kind of assay: LPS-Stimulated Cytokine Production in Human Whole Blood. It counts as cell-based. To be noted: 50 ng/ml LPS, 4 hour incubation, IL-1beta and/or TNFalpha by ELISA.
Procedure: Assay: Test compound concentrations were prepared at 10× concentrations and LPS prepared at 1 ug/ml (final conc. of 50 ng/ml LPS) and added in 50 uL volumes to 1.5 mL eppendorf tubes. Heparinized human whole blood was obtained from healthy volunteers and was dispensed into eppendorf tubes or multiwell plates containing compounds and LPS in 0.2-0.4 mL volumes and the tubes incubated at 37 C. In some studies, compound was incubated with blood for up to 30 min prior to addition of LPS. Following a 4 hour incubation, the tubes or plates were centrifuged to remove cells and plasma was withdrawn and frozen at −80 C. Cytokine measurement: IL-Ibeta and/or TNFalpha were quantified using a standardized ELISA, or similar technology. Concentrations of IL-1beta or TNFalpha were determined from standard curves of the appropriate cytokine and IC50 values for test compound (concentration that inhibited 50% of LPS-stimulated cytokine production) were calculated by linear regression analysis.
The test system of assay [4] is IL-6, IL-8, GM-CSF, RANTES and COX-2. The conditions noted are these: a number of different cell types; cited from earlier work.

With `COc1nccc(-c2c(-c3ccc(F)cc3)ncn2C2CCNCC2)n1` [SB-242235], the “inhibition of TGF-β-induced increases in fibronectin and thrombospondin” value in assay [1] is reported as “inhibited”.

For the compound `Cc1cc(F)ccc1-c1nc(NCCNC(N)=NC#N)nc2c1ccc(=O)n2-c1c(F)cccc1F` [Example 10], in assay [2], the “IC50, TNF-stimulated IL-8 production” value is listed as “active”. The “IC50 (concentration that inhibited 50% of LPS-stimulated cytokine production)” value in assay [3] is given as “active”.

Take `Fc1ccc(-c2nc3n(c2-c2ccncc2)CCS3)cc1` [SK&F 86002]: the “decreasing the synthesis of pro-inflammatory proteins including IL-6, IL-8, GM-CSF, RANTES and COX-2” value in assay [4] is reported as “effective”.

Consider `C[S+]([O-])c1ccc(-c2nc(-c3ccncc3)c(-c3ccc(F)cc3)[nH]2)cc1` (centres unmarked) [SB-203580], for which, in assay [4], the “decreasing the synthesis of pro-inflammatory proteins including IL-6, IL-8, GM-CSF, RANTES and COX-2” value was “effective”.
